According to article PMC6934184, “Selective DNA-PKcs inhibition extends the therapeutic index of localized radiotherapy and chemotherapy” (The Journal of Clinical Investigation, 2019):

Target: T1, LYN B (Homo sapiens, UniProt P07948)
T1 construct: purchased Thermo Fisher Scientific (Life Technologies) SelectScreen
Test: SelectScreen Z'LYTE
Format: biochemical
Description: The in vitro kinase selectivity of NU5455 was determined using the SelectScreen Broad Assay Panel (Thermo Fisher Scientific) involving activity and binding assays (Supplemental Table 1). […] Class IA PI3Ks were measured using the p85α subunit.
Kinase [ATP] % Assay Kinase [ATP] % Assay Kinase [ATP] % Assay Kinase [ATP] % Assay […]
CHEK1 (CHK1) Km app 9.3 Z LYN B Km app 3.0 Z TGFBR2 n/a -0.1 L PDGFRA D842V Km app -5.0 Z […]
SGK (SGK1) Km app 8.5 Z MAP4K2 (GCK) Km app 2.7 Z TLK2 n/a -0.3 L STK38 (NDR) n/a -5.9 L
MERTK (cMER) Km app 8.3 Z CDK2/cyclin A Km app 2.7 Z TGFBR1 (ALK5) n/a -0.4 L MATK (HYL) Km app -6.3 Z
FYN Km app 8.3 Z EPHA1 Km app 2.7 Z CLK3 Km app -0.5 Z ABL1 E255K Km app -6.6 Z
TEC n/a 8.1 L CDK2/cyclin E1 n/a 2.7 L MAP3K14 (NIK) n/a -0.5 L STK17A (DRAK1) n/a -6.6 L
KIT V654A n/a 8.1 L TESK2 n/a 2.7 L AKT3 (PKB gamma) Km app -0.5 Z JAK2 JH1 JH2 Km app -6.7 Z
ROS1 Km app 8.0 Z SPHK1 Km app 2.7 A MAP3K9 (MLK1) Km app -0.5 Z PRKACB (PRKAC beta) n/a -6.8 L
FGFR3 K650E Km app 7.9 Z AMPK A2/B1/G1 Km app 2.6 Z IKBKB (IKK beta) Km app -0.6 Z PDGFRA (PDGFR alpha) Km app -6.8 Z
RAF1 (cRAF) Y340D Y341D 100 7.9 Z DYRK3 Km app 2.6 Z CAMK2A (CaMKII alpha) Km app -0.6 Z NEK9 Km app -7.2 Z
PI4KA (PI4K alpha) 10 7.8 A CSNK1D (CK1 delta) Km app 2.6 Z PRKCB1 (PKC beta I) Km app -0.7 Z PDK1 Km app -7.3 Z
HIPK2 Km app 7.8 Z ACVR2A n/a 2.5 L TTK n/a -0.7 L RPS6KB1 (p70S6K) Km app -7.8 Z […]

T1 sequence (P07948 1-491 isoform P07948-2): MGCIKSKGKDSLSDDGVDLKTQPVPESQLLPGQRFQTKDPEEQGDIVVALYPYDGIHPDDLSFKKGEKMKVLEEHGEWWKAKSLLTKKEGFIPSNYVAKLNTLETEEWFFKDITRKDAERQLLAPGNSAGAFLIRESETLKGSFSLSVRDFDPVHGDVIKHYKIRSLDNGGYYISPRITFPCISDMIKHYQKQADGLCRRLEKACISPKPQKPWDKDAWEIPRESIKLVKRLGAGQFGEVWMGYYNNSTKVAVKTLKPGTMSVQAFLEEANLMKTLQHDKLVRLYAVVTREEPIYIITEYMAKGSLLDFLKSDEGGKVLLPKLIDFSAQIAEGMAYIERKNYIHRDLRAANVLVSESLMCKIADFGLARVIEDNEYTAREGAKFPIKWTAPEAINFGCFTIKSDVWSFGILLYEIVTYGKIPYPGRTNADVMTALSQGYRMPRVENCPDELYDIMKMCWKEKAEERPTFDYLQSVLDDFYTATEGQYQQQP

**Q.** `CN(C(=O)CN1CCOCC1)c1ccc2sc3c(-c4cccc5c(=O)cc(N6CC7CCC(C6)O7)oc45)cccc3c2c1` [NU5455] was tested. Which inhibition at 1 µM did it give?
**A.** 3%
